Measurements as given in patent US20240247080A1, “GLP1/GIP/NPY2 RECEPTOR TRIPLE AGONISTS” (Boehringer Ingelheim International GmbH, priority 2022, published 2024).
Where two headings read alike, the source gives them in different places. Starred links: 1 amine or outer side, 2 acyl side, 3 side chain; linkers in the order of their positions; H or OH if unused. Non-standard residues stand in square brackets, D forms with d. Groups on a side chain read outwards from the residue. *: point of attachment. C18 diacid = O=C(O)CCCCCCCCCCCCCCCCC(=O)*; γGlu = O=C(O)[C@H](CCC(=O)[*:2])N[*:1]; Aib = CC(C)(N)C(=O)O

Experiments:
[1] = Effect on acute food intake in normal NMRI mice; assay type: in vivo; settings: 30 nmol/kg subcutaneously once, normalized to vehicle group, male NMRI mice
Procedure: Example 4: Effect on Acute Food Intake in Normal NMRI Mice
Male NMRI mice were obtained from Janvier (Janvier Labs, France) or from Charles River (Charles River Research Models & Services Germany GmbH) at the age of 3 weeks. The animals get a microchip (Datamars, Slim Microchip T-SL) for individual identification after delivery. They were housed with 4 mice per cage under a 12/12 dark-light cycle, light off at 3 p.m. Room temperature was controlled to 21° C. +/−1° C. and humidity 60%+/−20%. Mice had ad libitum access to regular rodent chow (KLIBA Nafag 3040 or Altromin 1324, Brogaarden, Denmark) and tap water.
Latest transfer into the HM2-System of MBRose, Denmark (real-time monitoring system of food- and water intake) of the animals 5 days before study start, to allow acclimatization to experimental conditions. As the animals were uniquely identified with the microchips, each individual animal was identified by its own microchip upon entry and exit from the food channel via antennae. Randomization of the mice for each study group (n=8; age earliest 6 weeks old) was based on food intake (middle of last three days 24 h-Intervall) and bodyweight directly before start of the study. A vehicle treated (50 mM phosphate buffer pH7.4 with 3.5% Mannitol) group was included in each experiment. To have the same nutrition standard for each animal the food access was locked eight hours before dark phase. One hour before night, the animals were once treated subcutaneously with the test peptide. Food intake was reported hourly for a period of 24 h.

[2] = Mouse PK after intravenous application; assay type: in vivo; settings: mean residence time, intravenous 30-60 nmol/kg, male NMRI mice
Procedure, shortened: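 Male NMRI mice (30–40 g) received 30-60 nmol/kg peptide by tail-vein injection, dissolved in 50 mM phosphate buffer (pH 7.4)/3.5% mannitol. Saphenous blood was sampled up to 56 hours post-dose and EDTA plasma analysed by LC-MS. PK parameters came from non-compartmental analysis.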

hGIPR = biological target: T1, hGIPR (Homo sapiens, UniProt P48546); experiment: hGIPR CreLuc reporter gene assay in 0.5% and 100% plasma; assay type: cell-based; settings: CreLuc reporter gene assay
T1 construct: expressed in transfected cells; host or cells: CHO cells carrying a CRE-luciferase reporter gene
T1 sequence (P48546 22-466): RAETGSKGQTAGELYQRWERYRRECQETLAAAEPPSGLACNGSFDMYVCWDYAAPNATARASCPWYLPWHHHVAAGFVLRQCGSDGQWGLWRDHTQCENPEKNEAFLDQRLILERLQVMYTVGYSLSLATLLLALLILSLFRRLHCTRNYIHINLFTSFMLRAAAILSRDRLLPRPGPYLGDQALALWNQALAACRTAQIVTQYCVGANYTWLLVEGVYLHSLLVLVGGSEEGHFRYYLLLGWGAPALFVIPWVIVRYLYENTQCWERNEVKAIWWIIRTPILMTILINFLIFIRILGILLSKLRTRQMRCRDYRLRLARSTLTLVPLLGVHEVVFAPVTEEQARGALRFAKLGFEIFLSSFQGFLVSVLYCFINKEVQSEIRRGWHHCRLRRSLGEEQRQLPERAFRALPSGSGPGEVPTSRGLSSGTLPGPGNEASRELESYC
Procedure, shortened: (§1)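 Agonist EC50s came from 8-concentration curves over four decades, fitted by non-linear variable-slope regression of CRE-driven luciferase luminescence. Cells were exposed 4 h at 37 °C, in buffer with 0.5% human plasma or in 100% plasma; GIPR was expressed in CHO cells, GLP-1R and NPY2R in HEK cells.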

hGLP1R = biological target: T2, hGLP1R (Homo sapiens, UniProt P43220); experiment: hGLP1R CreLuc reporter gene assay in 0.5% and 100% plasma; assay type: cell-based; settings: CreLuc reporter gene assay
T2 construct: expressed in transfected cells; host or cells: HEK-293 cells carrying a CRE-luciferase reporter gene
Procedure, shortened: as §1

hNPY2R = biological target: T3, hNPY2R (Homo sapiens, UniProt P49146); experiment: hNPY2R CreLuc reporter gene assay in 0.5% and 100% plasma; assay type: cell-based; settings: CreLuc reporter gene assay, 0.5% human plasma; read-out: hNPY2R 0.5% hP
T3 construct: expressed in transfected cells; host or cells: HEK-293 cells carrying a CRE-luciferase reporter gene
T3 sequence (P49146 1-381): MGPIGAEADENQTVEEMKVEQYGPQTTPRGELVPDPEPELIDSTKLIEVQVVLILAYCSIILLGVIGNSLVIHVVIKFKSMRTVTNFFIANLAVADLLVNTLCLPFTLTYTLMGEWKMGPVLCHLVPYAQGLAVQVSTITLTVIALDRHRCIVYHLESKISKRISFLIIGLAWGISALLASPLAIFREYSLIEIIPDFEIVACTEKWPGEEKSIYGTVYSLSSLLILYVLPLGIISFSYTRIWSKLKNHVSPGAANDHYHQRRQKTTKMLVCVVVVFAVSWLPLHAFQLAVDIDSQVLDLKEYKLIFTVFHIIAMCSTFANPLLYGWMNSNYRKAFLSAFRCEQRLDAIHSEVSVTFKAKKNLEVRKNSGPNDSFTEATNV
Procedure, shortened: as §1

[3] = 0.5% human plasma, read-out: hGIPR 0.5% hP
[4] = 100% human plasma, read-out: hGIPR 100% hP
[5] = 0.5% human plasma, read-out: hGLP1R 0.5% hP
[6] = 100% human plasma, read-out: hGLP1R 100% hP

T2 sequence (P43220 24-463): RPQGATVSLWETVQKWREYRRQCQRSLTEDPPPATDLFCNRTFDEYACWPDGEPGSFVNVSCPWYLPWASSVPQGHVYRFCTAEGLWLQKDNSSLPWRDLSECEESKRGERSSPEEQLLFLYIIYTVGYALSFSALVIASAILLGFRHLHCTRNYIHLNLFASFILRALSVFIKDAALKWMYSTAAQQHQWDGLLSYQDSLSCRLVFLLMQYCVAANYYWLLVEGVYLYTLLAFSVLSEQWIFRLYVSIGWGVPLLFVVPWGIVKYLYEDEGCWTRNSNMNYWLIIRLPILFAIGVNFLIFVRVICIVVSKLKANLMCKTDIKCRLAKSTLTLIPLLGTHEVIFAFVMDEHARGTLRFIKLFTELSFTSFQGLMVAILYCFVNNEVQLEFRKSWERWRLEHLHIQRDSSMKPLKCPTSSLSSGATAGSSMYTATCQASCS

CC[C@H](C)[C@H](NC(=O)[C@H](CC(C)C)NC(=O)[C@H](Cc1c[nH]c2ccccc12)NC(=O)[C@H](CCC(=O)O)NC(=O)[C@@H](NC(=O)[C@H](Cc1ccccc1)NC(=O)[C@H](C)NC(=O)C(C)(C)NC(=O)[C@H](CCC(N)=O)NC(=O)[C@H](C)NC(=O)[C@H](CCC(N)=O)NC(=O)[C@H](CCCCN)NC(=O)[C@H](CCC(=O)O)NC(=O)[C@H](CC(C)C)NC(=O)C(C)(C)NC(=O)[C@@H](NC(=O)[C@H](CO)NC(=O)[C@H](Cc1ccc(O)cc1)NC(=O)[C@H](CC(=O)O)NC(=O)[C@H](CO)NC(=O)[C@@H](NC(=O)[C@H](Cc1ccccc1)NC(=O)[C@@H](NC(=O)CNC(=O)[C@H](CCC(=O)O)NC(=O)C(C)(C)NC(=O)[C@@H](N)Cc1ccc(O)cc1)[C@@H](C)O)[C@@H](C)O)[C@@H](C)CC)C(C)C)C(=O)N[C@@H](CCCCNC(=O)[C@@H](N)CCCCNC(=O)[C@H](CCC(=O)O)NC(=O)CC[C@H](NC(=O)CC[C@H](NC(=O)CC[C@H](NC(=O)CC[C@H](NC(=O)CC[C@H](NC(=O)CCCCCCCCCCCCCCCCCCC(=O)O)C(=O)O)C(=O)O)C(=O)O)C(=O)O)C(=O)O)C(=O)NCC(=O)NCC(=O)N1CCC[C@H]1C(=O)N[C@@H](CO)C(=O)N[C@@H](CCC(=O)O)C(=O)NCC(=O)N[C@@H](C)C(=O)N[C@@H](CO)C(=O)N[C@@H](CC(C)C)C(=O)N[C@@H](CCCNC(=N)N)C(=O)N[C@@H](Cc1c[nH]cn1)C(=O)N[C@@H](Cc1ccc(O)cc1)C(=O)N[C@@H](Cc1ccc(O)cc1)C(=O)N[C@@H](CC(N)=O)C(=O)N[C@@H](Cc1c[nH]c2ccccc12)C(=O)N[C@@H](CC(C)C)C(=O)N[C@H](C(=O)N[C@@H](CCCNC(=N)N)C(=O)N[C@@H](CCC(N)=O)C(=O)N[C@@H](CCCNC(=N)N)C(=O)N[C@@H](Cc1ccc(O)cc1)C(N)=O)[C@@H](C)O [Compound 286, Y-Aib-E-G-T-F-T-S-D-Y-S-I-Aib-L-E-K-Q-A-Q-Aib-A-F-V-E-W-L-I-K(1,3)-GGPSEGASLRHYYNWLTRQRY-NH2.C20DA-gGlu-gGlu-gGlu-gGlu-gGlu-Glu-eLys(1,2)]
Acute Food Intake 24 h 30 nmol/kg [% CTL] [1]: 58 % CTL
MRT ([2]; in vivo): 11 h

CC[C@H](C)[C@H](NC(=O)[C@H](CC(C)C)NC(=O)[C@H](Cc1c[nH]c2ccccc12)NC(=O)[C@H](CCC(=O)O)NC(=O)[C@@H](NC(=O)[C@H](Cc1ccccc1)NC(=O)[C@H](C)NC(=O)C(C)(C)NC(=O)[C@H](CCC(N)=O)NC(=O)[C@H](C)NC(=O)[C@H](CCC(N)=O)NC(=O)[C@H](CCCCN)NC(=O)[C@H](CCC(=O)O)NC(=O)[C@H](CC(C)C)NC(=O)C(C)(C)NC(=O)[C@@H](NC(=O)[C@H](CO)NC(=O)[C@H](Cc1ccc(O)cc1)NC(=O)[C@H](CC(=O)O)NC(=O)[C@H](CO)NC(=O)[C@@H](NC(=O)[C@H](Cc1ccccc1)NC(=O)[C@@H](NC(=O)CNC(=O)[C@H](CCC(=O)O)NC(=O)C(C)(C)NC(=O)[C@@H](N)Cc1ccc(O)cc1)[C@@H](C)O)[C@@H](C)O)[C@@H](C)CC)C(C)C)C(=O)N[C@@H](CCCCNC(=O)[C@@H](N)CCCCNC(=O)CC[C@H](NC(=O)CC[C@H](NC(=O)CC[C@H](NC(=O)CC[C@H](NC(=O)CC[C@H](NC(=O)CC[C@H](NC(=O)CCCCCCCCCCCCCCCCCCC(=O)O)C(=O)O)C(=O)O)C(=O)O)C(=O)O)C(=O)O)C(=O)O)C(=O)NCC(=O)NCC(=O)N1CCC[C@H]1C(=O)N[C@@H](CO)C(=O)N[C@@H](CO)C(=O)NCC(=O)N[C@@H](C)C(=O)N[C@@H](CO)C(=O)N[C@@H](CC(C)C)C(=O)N[C@@H](CCCNC(=N)N)C(=O)N[C@@H](Cc1c[nH]cn1)C(=O)N[C@@H](Cc1ccc(O)cc1)C(=O)N[C@@H](Cc1ccc(O)cc1)C(=O)N[C@@H](CC(N)=O)C(=O)N[C@@H](Cc1c[nH]c2ccccc12)C(=O)N[C@@H](CC(C)C)C(=O)N[C@H](C(=O)N[C@@H](CCCNC(=N)N)C(=O)N[C@@H](CCC(N)=O)C(=O)N(C)[C@@H](CCCNC(=N)N)C(=O)N[C@@H](Cc1ccc(O)cc1)C(N)=O)[C@@H](C)O [Compound 83, Y-Aib-E-G-T-F-T-S-D-Y-S-I-Aib-L-E-K-Q-A-Q-Aib-A-F-V-E-W-L-I-K(1,3)-G-G-P-S-S-G-A-S-L-R-H-Y-Y-N-W-L-T-R-Q-NMeR-Y-NH2.C20DA-gGlu-gGlu-gGlu-gGlu-gGlu-gGlu-eLys(1,2)]
EC50 (hGIPR; [3]): 0.13 nM
EC50 (hGIPR; [4]): 1.06 nM
MRT ([2]; plasma): 10.3 h
EC50 (hGLP1R; [5]): 0.17 nM
EC50 (hGLP1R; [6]): 2.87 nM
EC50 (hNPY2R): 28.8 nM

H-Y[Aib]EGTFTSDYSI[Aib]LEKQAQ[Aib]EFVEWLIK([γGlu-γGlu-γGlu-γGlu-C18 diacid])GGPSEGASLRHYYNWLTRQRY-NH2 [Compound 276, Y-Aib-E-G-T-F-T-S-D-Y-S-I-Aib-L-E-K-Q-A-Q-Aib-E-F-V-E-W-L-I-K(1,3)-GGPSEGASLRHYYNWLTRQRY-NH2.C18DA-gGlu-gGlu-gGlu-gGlu(1,2)]
Acute Food Intake 24 h 30 nmol/kg [% CTL] [1]: 60 % CTL
EC50 (hGIPR; [3]): 0.37 nM
EC50 (hGIPR; [4]): 1.82 nM
EC50 (hGLP1R; [5]): 0.35 nM
EC50 (hGLP1R; [6]): 16.7 nM
EC50 (hNPY2R): 20.7 nM
